{
  "source": "paper PMC6493727",
  "about": "“FluoroCellTrack: An algorithm for automated analysis of high-throughput droplet microfluidic data” (PLoS ONE, 2019)",
  "test_system": "OPM-2 cells",
  "test": "Dose response of single OPM-2 cells to Bortezomib, live/dead staining in a droplet trapping array",
  "assay_type": "cell-based",
  "settings": "for Dead Cells / Live Cells: Calcein AM/EthD-1 staining; for Dead Cells / Live Cells / Overlapping Cells: FluoroCellTrack automated count, n=787 droplets",
  "excerpt": "First, a mask was generated by detecting differently colored cells from the input image, Fig 3A. This mask (Fig 3B) was overlapped with the input image and was subjected to edge detection, dilation and erosion to yield Fig 3C, which was then segmented through random walker algorithm to detect and distinguish attached cells. Random walker segmentation algorithm was used over traditional watershed algorithm due to its highly precise probabilistic interpretation of local maxima (Fig 3D). The distinguished contours from this image were then filtered for area, where cellular area equal to or greater than 130 pixels were outlined and labeled as shown in Fig 3E. 130 was selected as the thresholding value due to the mean cellular area being ~140 pixels. This step was essential to exclude debris to eliminate false positives. However, in case of co-culture platforms, where primary cells are of the same size as that of the secondary cells, or in systems where the debris is of the same size as that of the cells, specific cellular or organelle staining can be used to distinguish these features and the extensive palette used in computer vision aids in easy detection of such features. […] For instance, similar features with slight deviations in shape, size and orientation were easily detected by the droplet/contour detection steps of FluoroCellTrack but would need a repository of many templates while using the template matching feature, showing that the latter can be highly uneconomical. The broad palette of colors in computer vision can be exploited here to detect any fluorescent cell and as an example here, the contour detection step was implemented to quantify actual cellular viability data as shown in Fig 4. Lower [B, G, R]: [0, 51, 0] and upper [B, G, R]: [153, 255, 153] boundaries were given for live cells and, dead cells were identified with the lower and upper color boundaries at; [153, 153, 255] while overlapping cells were identified with lower and upper color boundaries of [0, 51, 51]; [153, 255, 255]. Cells with overlapping signals in both the green and red filter sets represent cells with compromised plasma membranes (indicative of a dead cell), but with remaining esterase activity to react with the Calcein AM. These cells were noted as ‘dying’ cells to distinguish them from the clean live and dead signals using the other contour boundaries. The contours with specific colors were detected from the input images, where the positively detected live, dead and overlapping cells with an area equal to or greater than 130 pixels were outlined with distinct colors: live cells in red, dead cells in blue and overlapping cells in purple (Fig 4). The outlined cell-center map was overlaid with the droplet center map and scanned to fit within 25<R<50-micron values (denoted by white arrows), to account for single/multiple cell encapsulation information as shown in the output data of Fig 4. This step was essential to calculate the single-cell encapsulation efficiency and to eliminate cells that were freely floating in the device, thus including cells that were only inside the droplets. Additionally, the user can easily eliminate the droplet detection step to use this contour detection as a stand-alone platform (similar to ImageJ and Cell Profiler) to detect and quantify properties of fluorescent cells from other microfluidic or non-microfluidic applications. The advantage of FluoroCellTrack over current software tools like ImageJ and Cell Profiler lies in the fact that the former can be employed in non-droplet microfluidic platforms in addition to droplet microfluidics, but the latter cannot be used to quantify high-throughput droplet microfluidic data.\nAn important application of any automated platform is to count cells and sort them based on their fluorescent response. As an example, the dose-dependent single cell response of OPM-2 cells to a clinical inhibitor, Bortezomib was observed. […]",
  "data": [
    {"smiles": "CC(C)C[C@H](NC(=O)[C@H](Cc1ccccc1)NC(=O)c1cnccn1)B(O)O", "note": "[BTZ, Bortezomib]", "values": [
      {"measurement": "Dead Cells", "setting": "1 nM BTZ, Day 1 (24 h)", "value": 5},
      {"measurement": "Live Cells", "setting": "1 nM BTZ, Day 1 (24 h)", "value": 311},
      {"measurement": "Overlapping Cells", "setting": "1 nM BTZ, Day 1 (24 h), overlapping = dying cells (green and red signal)", "value": 28},
      {"measurement": "Dead Cells", "setting": "1 nM BTZ, Day 2 (48 h)", "value": 10},
      {"measurement": "Live Cells", "setting": "1 nM BTZ, Day 2 (48 h)", "value": 53},
      {"measurement": "Overlapping Cells", "setting": "1 nM BTZ, Day 2 (48 h), overlapping = dying cells", "value": 45},
      {"measurement": "Dead Cells", "setting": "1 nM BTZ, Day 3 (72 h)", "value": 53},
      {"measurement": "Live Cells", "setting": "1 nM BTZ, Day 3 (72 h)", "value": 140},
      {"measurement": "Overlapping Cells", "setting": "1 nM BTZ, Day 3 (72 h), overlapping = dying cells", "value": 206},
      {"measurement": "viability of single OPM-2 cells", "setting": "1 nM, 10 nM and 100 nM, 24 h, 48 h and 72 h incubation", "value": "decrease in viability at increasing concentrations and incubation times"},
      {"measurement": "Dead Cells", "setting": "10 nM BTZ, Day 1 (24 h)", "value": 5},
      {"measurement": "Live Cells", "setting": "10 nM BTZ, Day 1 (24 h)", "value": 49},
      {"measurement": "Overlapping Cells", "setting": "10 nM BTZ, Day 1 (24 h), overlapping = dying cells", "value": 38},
      {"measurement": "Dead Cells", "setting": "10 nM BTZ, Day 2 (48 h)", "value": 67},
      {"measurement": "Live Cells", "setting": "10 nM BTZ, Day 2 (48 h)", "value": 15},
      {"measurement": "Overlapping Cells", "setting": "10 nM BTZ, Day 2 (48 h), overlapping = dying cells", "value": 113},
      {"measurement": "Dead Cells", "setting": "10 nM BTZ, Day 3 (72 h)", "value": 92},
      {"measurement": "Live Cells", "setting": "10 nM BTZ, Day 3 (72 h)", "value": 0},
      {"measurement": "Overlapping Cells", "setting": "10 nM BTZ, Day 3 (72 h), overlapping = dying cells", "value": 107},
      {"measurement": "Dead Cells", "setting": "100 nM BTZ, Day 1 (24 h)", "value": 75},
      {"measurement": "Live Cells", "setting": "100 nM BTZ, Day 1 (24 h)", "value": 0},
      {"measurement": "Overlapping Cells", "setting": "100 nM BTZ, Day 1 (24 h), overlapping = dying cells", "value": 100},
      {"measurement": "Dead Cells", "setting": "100 nM BTZ, Day 2 (48 h)", "value": 320},
      {"measurement": "Live Cells", "setting": "100 nM BTZ, Day 2 (48 h)", "value": 3},
      {"measurement": "Overlapping Cells", "setting": "100 nM BTZ, Day 2 (48 h), overlapping = dying cells", "value": 149},
      {"measurement": "Dead Cells", "setting": "100 nM BTZ, Day 3 (72 h)", "value": 108},
      {"measurement": "Live Cells", "setting": "100 nM BTZ, Day 3 (72 h)", "value": 0},
      {"measurement": "Overlapping Cells", "setting": "100 nM BTZ, Day 3 (72 h), overlapping = dying cells", "value": 17}
    ]}
  ]
}
